Assay results reported in patent US20260241049A1, “Radiopharmaceutical Compositions Targeting Glypican-3 and Uses Thereof” (RayzeBio, Inc., priority 2023, published 2026).
Values belong to the molecule of their own block, whether it stands above or below them. Starred links: 1 amine or outer side, 2 acyl side, 3 side chain; linkers in the order of their positions; H or OH if unused. Positions of bridges follow the written chain, without caps; N, C: chain ends. Non-standard residues stand in square brackets, D forms with d. Residues, ends and D or L forms follow the SMILES beside them. Primed or numbered codes have the meaning given here. MeHseMe″ = (2S)-4-methoxy-2-(methylamino)butanoic acid (N-methyl-O-methyl-L-homoserine), COCC[C@@H](C(=O)[*:2])N(C)[*:1]; Phe(4-(1-Me-pyrazol-4-yl)) = Cn1cc(-c2ccc(C[C@H](N)C(=O)O)cc2)cn1; NMeAla(isoquinolin-7-yl) = CN[C@@H](Cc1ccc2ccncc2c1)C(=O)O; 3Pal(6-Ph) = N[C@@H](Cc1ccc(-c2ccccc2)nc1)C(=O)O; Phe(4-COOH) = N[C@@H](Cc1ccc(C(=O)O)cc1)C(=O)O; NMe2Nal = CN[C@@H](Cc1ccc2ccccc2c1)C(=O)O; NMeI = CC[C@H](C)[C@H](NC)C(=O)O; NMeQ = CN[C@@H](CCC(N)=O)C(=O)O; NMehSer = CN[C@@H](CCO)C(=O)O; NMeK = CN[C@@H](CCCCN)C(=O)O; NMeC = CN[C@@H](CS)C(=O)O

Legend:
human Glypican3 = target: T1, human Glypican3 (Homo sapiens, UniProt P51654); test: SPR binding to Glypican-3, Method B-1 (Glypican3 immobilized on CM3 chip, Biacore T200); conditions: SPR method B-1
T1 construct: purchased R&D systems 2119-GP
Protocol: A CM3 sensor chip (Cytiva) was inserted into a Biacore T200 (Cytiva), primed three times with a running buffer: HBS-P+, pH 7.4 (Cytiva), and equilibrated at a flow rate of 30 μL/min. Ligand immobilization was performed at a flow rate of 10 μL/min. 50 μL each of 60 mM EDC solution (Cytiva) and 650 mM NHS solution (Cytiva) were mixed, and then reacted at a flow rate of 10 μL/min for 420 seconds, 150 μL of 0.2 μM human Glypican3 (R&D systems, catalog number: 2119-GP) solution which was prepared by diluting with 10 mM acetic acid solution (pH 5.0), was reacted at a flow rate of 10 μL/min for 420 seconds, and Glypican3 was immobilized on the CM3 sensor chip. After immobilization, 1.0 M ethanolamine aqueous solution (Cytiva) was allowed to react for 420 seconds at a flow rate of 10 μL/min for capping. A peptide lysate prepared to 10 mM in DMSO solution was diluted with running buffer to a final concentration of 10 μM peptide lysate. After that, 5 serial dilution series (100 nM, 50 nM, 25 nM, 10 nM, 5 nM) of peptide solutions were prepared. Using the above samples, peptide kinetics for Glypican3 was obtained by SPR measurement. Kinetics evaluation of Glypican3 was performed by SPR measurements at a flow rate of 10 μL/min, setting the association time to 120 seconds and the disassociation time to 600 seconds.
(§1) The obtained data by Method B-1, Method B-2, Method B-3 and Method B-4 were analyzed by follow. Single Cycle Kinetics was used as the kinetics evaluation model, and curve fitting was performed using Biacore T200 Evaluation Software Version 3.0 (Cytiva). The obtained sensorgram was subjected to curve fitting by the method of least squares and obtained KD values of the macrocyclic peptides in this disclosure for Glypican 3 protein are shown in Table 18.

HCC patient = conditions: cited from earlier work
[1] = tested on: late-stage liver cancer patients; conditions: phase II clinical trial, 185 late-stage liver cancer patients; cited from earlier work
Human Glypican3-Fc = Human Glypican3-Fc (Homo sapiens, UniProt P51654); test: SPR binding to Glypican-3, Method B-4 (Glypican3-Fc on Protein A chip, peptide 40 nM); conditions: SPR method B-4, peptide 40 nM
Protocol: A Protein A sensor chip (Cytiva) was inserted into a Biacore T200 (Cytiva), priming was performed three times with a running buffer: HBS-P+, pH 7.4 (Cytiva), and equilibration was carried out at a flow rate of […]. Gly pican3-Fc was allowed to react for 60 seconds at a flow rate of 10 μL/min. After capturing human Glypican3-Fc, a peptide solution prepared to 1 mM in DMSO solution was diluted with a running buffer to a final concentration of 1 μM. After that, the peptide solution was diluted to 40 nM in a similar manner. Using the above samples, peptide kinetics for Glypican3 was obtained by SPR measurement. Kinetics evaluation of Glypican3 was performed by SPR measurements at a flow rate of 30 μL/min. setting the association time to 120 seconds and the disassociation time to 600 seconds.
as §1

[2] = tested on: HepG2 (glypican 3 expressed on the cell surface); test: Flow cytometry, biotinylated peptides followed by SAPE, HepG2; format: cell-based, human; conditions: biotinylated peptide at 100 nM followed by SAPE (1:250), on ice; versus SK-Hep1 negative control; FIG. 1
Protocol: (§2) HepG2 (human hepatocellular carcinoma) and SK-HEP-1 (human hepatic adenocarcinoma) cell lines were purchased from the American Type Culture Collection (ATCC; Manassas, VA). Huh-7 (human hepatoblastoma) cell line was purchased from the Japanese Collection of Research Bioresources Cell Bank (JCRB Cell Bank, Osaka, Japan). HepG2 and SK-HEP-1 were grown in EMEM (FUJIFILM Wako Pure Chemical Corporation, 055-08975) with 10% fetal bovine serum (FBS; Thermo Fisher Scientific, 10270106) and 0.1% gentamicin (NACALAI TESQUE, 11980-14). Huh-7 was grown in DMEM (Thermo Fisher Scientific, 10567014) with 10% FBS and 0.1% gentamicin.
(§3) HepG2, SK-HEP-1 and Huh-7 cells were collected from the culture dish and stained with biotinylated peptides at 100 nM followed by Streptavidin, R-Phycoerythrin Conjugate (SAPE: Thermo Fisher Scientific, S866) (1:250). Cells were washed with phosphate-buffered saline (PBS; FUJIFILM Wako Pure Chemical Corporation, 043-29791) containing 0.5% FBS after addition of peptides or SAPE. All staining procedures were performed on ice. Samples were measured using CytoFLEX S (Beckman Coulter) and CytExpert ver2.4 software. All data were analyzed using FlowJo™ (BD Bioscience). For discrimination of live cells from dead cells, SYTOX™ Blue Dead Cell Stain (Thermo Fisher Scientific, S34857) (1:5000) was added prior to measurement.

[3] = tested on: Huh-7 (glypican 3 expressed on the cell surface); test: Flow cytometry, biotinylated peptides followed by SAPE, Huh-7; format: cell-based, human; conditions: biotinylated peptide at 100 nM followed by SAPE (1:250), on ice; versus SK-Hep1 negative control; FIG. 2
Protocol: as §2, §3

[4] = target: T2, Human Glypican3-Fc (ACRO Biosystems, GP3-H5258) (human, UniProt P51654 25-559); test: SPR (Biacore T200), Method B-4: Glypican3-Fc captured on Protein A chip, peptide at 40 nM
T2 construct: Bought fusion protein, captured in Methods B-2, B-3 and B-4; Catalogue number is printed only in Method B-2; not shown: Fc part of the bought fusion
Protocol: Using the above samples, peptide kinetics for Glypican3 was obtained by SPR measurement.
The obtained data by Method B-1, Method B-2, Method B-3 and Method B-4 were analyzed by follow. Single Cycle Kinetics was used as the kinetics evaluation model, and curve fitting was performed using Biacore T200 Evaluation Software Version 3.0 (Cytiva).

[5] = target: Human Glypican3-Fc (ACRO Biosystems, GP3-H5258) (human) (UniProt P51654); test: SPR (Biacore T200), Method B-3: Glypican3-Fc captured on Protein A chip, peptide as analyte

Kd (human Glypican3): 2.5 nM
Molecule: CC[C@H](C)[C@@H]1NC(=O)[C@H](Cc2ccc(C(=O)O)cc2)NC(=O)[C@H](CCC(N)=O)N(C)C(=O)[C@H](CCCCNC(C)=O)NC(=O)[C@H](CCC(N)=O)N(C)C(=O)[C@H](CCC(N)=O)N(C)C(=O)CSC[C@@H](C(N)=O)N(C)C(=O)[C@H](Cc2ccc(-c3cnn(C)c3)cc2)NC(=O)CNC(=O)[C@H](Cc2ccc3ccccc3c2)N(C)C(=O)[C@H](Cc2ccc(C(=O)O)cc2)NC(=O)[C@H]([C@@H](C)CC)NC1=O [Conjugate 2-11] ({CH2CO}-[NMeQ][NMeQ]K(Ac)[NMeQ][Phe(4-COOH)]II[Phe(4-COOH)][NMe2Nal]G[Phe(4-(1-Me-pyrazol-4-yl))][NMeC]-NH2; thioether N-12)

Molecule: Codrituzumab
tolerance in phase I clinical trials (HCC patient; phase I clinical trials): good immune tolerance | anti-tumour effect in HCC patient (HCC patient; phase I, advanced hepatocellular carcinoma): anti-tumour effect | therapeutic efficacy compared with the control group [1]: not impressive

Kd (Human Glypican3-Fc): 0.23 nM
Molecule: CC[C@H](C)[C@@H]1NC(=O)[C@H](Cc2ccc(C(=O)O)cc2)NC(=O)[C@H](CCC(N)=O)N(C)C(=O)[C@H](CC(=O)O)NC(=O)[C@H](CCOC)N(C)C(=O)[C@H](CCCCN)N(C)C(=O)CSC[C@@H](C(N)=O)N(C)C(=O)[C@H](Cc2ccc(-c3ccccc3)nc2)NC(=O)CNC(=O)[C@H](Cc2ccc3ccncc3c2)N(C)C(=O)[C@H](Cc2ccc(O)cc2)NC(=O)[C@H]([C@@H](C)CC)NC1=O [Conjugate 2-61] ({CH2CO}-[NMeK][NMehSer](Me)D[NMeQ][Phe(4-COOH)]IIY[NMeAla(isoquinolin-7-yl)]G[3Pal(6-Ph)][NMeC]-NH2; thioether N-12)

Kd (human Glypican3): 0.5 nM
Molecule: CC[C@H](C)[C@@H]1NC(=O)[C@H](Cc2ccc(C(=O)O)cc2)NC(=O)[C@H](CCC(N)=O)N(C)C(=O)[C@H](CC(=O)O)NC(=O)[C@H]([C@@H](C)CC)N(C)C(=O)[C@H](CCCCNC(C)=O)N(C)C(=O)CSC[C@@H](C(N)=O)N(C)C(=O)[C@H](Cc2ccc(-c3ccccc3)nc2)NC(=O)CNC(=O)[C@H](Cc2ccc3ccccc3c2)N(C)C(=O)[C@H](Cc2ccc(C(=O)O)cc2)NC(=O)[C@H]([C@@H](C)CC)NC1=O [Conjugate 2-1] ({CH2CO}-[NMeK](Ac)[NMeI]D[NMeQ][Phe(4-COOH)]II[Phe(4-COOH)][NMe2Nal]G[3Pal(6-Ph)][NMeC]-NH2; thioether N-12)

Kd (human Glypican3): 1.5 nM
Molecule: CC[C@H](C)[C@@H]1NC(=O)[C@H](Cc2ccc(C(=O)O)cc2)NC(=O)[C@H](CCC(N)=O)N(C)C(=O)[C@H](CC(=O)O)NC(=O)[C@H]([C@@H](C)CC)N(C)C(=O)[C@H](CCCCNC(C)=O)N(C)C(=O)CSC[C@@H](C(N)=O)N(C)C(=O)[C@H](Cc2ccc(-c3cnn(C)c3)cc2)NC(=O)CNC(=O)[C@H](Cc2ccc3ccccc3c2)N(C)C(=O)[C@H](Cc2ccc(C(=O)O)cc2)NC(=O)[C@H]([C@@H](C)CC)NC1=O [Conjugate 2-2] ({CH2CO}-[NMeK](Ac)[NMeI]D[NMeQ][Phe(4-COOH)]II[Phe(4-COOH)][NMe2Nal]G[Phe(4-(1-Me-pyrazol-4-yl))][NMeC]-NH2; thioether N-12)

Kd (human Glypican3): 1.2 nM
Molecule: CC[C@H](C)[C@@H]1NC(=O)[C@H](Cc2ccc(C(=O)O)cc2)NC(=O)[C@H](CCC(N)=O)N(C)C(=O)[C@H](CCC(N)=O)NC(=O)[C@H]([C@@H](C)CC)N(C)C(=O)[C@H](CCCCNC(C)=O)N(C)C(=O)CSC[C@@H](C(N)=O)N(C)C(=O)[C@H](Cc2ccc(-c3cnn(C)c3)cc2)NC(=O)CNC(=O)[C@H](Cc2ccc3ccccc3c2)N(C)C(=O)[C@H](Cc2ccc(C(=O)O)cc2)NC(=O)[C@H]([C@@H](C)CC)NC1=O [Conjugate 2-3] ({CH2CO}-[NMeK](Ac)[NMeI]Q[NMeQ][Phe(4-COOH)]II[Phe(4-COOH)][NMe2Nal]G[Phe(4-(1-Me-pyrazol-4-yl))][NMeC]-NH2; thioether N-12)

Molecule: CC[C@H](C)[C@@H]1NC[C@H](Cc2ccc(C(=O)O)cc2)NC(=O)[C@H](CCC(N)=O)N(C)C(=O)[C@H](CC(=O)O)NC(=O)[C@H]([C@@H](C)CC)N(C)C(=O)[C@H](CCCCNC(C)=O)N(C)C(=O)CSC[C@@H](C(=O)NCC(=O)NCCOCCOCCOCCOCCOCCOCCOCCOCCOCCOCCC(=O)N[C@@H](CCCCNC(=O)CCCC[C@@H]2SC[C@@H]3NC(=O)N[C@@H]32)C(N)=O)N(C)C(=O)[C@H](Cc2ccc(-c3ccccc3)nc2)NC(=O)CNC(=O)[C@H](Cc2ccc3ccncc3c2)N(C)C(=O)[C@H](Cc2ccc(O)cc2)NC(=O)[C@H]([C@@H](C)CC)NC1=O [PLB-60]
comparative staining of HepG2 cells (flow cytometry) [2]: specific binding | comparative staining of Huh-7 cells (flow cytometry) [3]: specific binding

Kd [4]: 0.23 nM
B1: Macrocyclic peptide of Example 2-61 (SEQ ID No. 72) (peptide)
peptide: {CH2CO}-[NMeK][MeHseMe″]D[NMeQ][Phe(4-COOH)]IIY[NMeAla(isoquinolin-7-yl)]G[3Pal(6-Ph)][NMeC]-NH2
modifications: thioether N-12
SMILES: CC[C@H](C)[C@@H]1NC(=O)[C@H](Cc2ccc(C(=O)O)cc2)NC(=O)[C@H](CCC(N)=O)N(C)C(=O)[C@H](CC(=O)O)NC(=O)[C@H](CCOC)N(C)C(=O)[C@H](CCCCN)N(C)C(=O)CSC[C@@H](C(N)=O)N(C)C(=O)[C@H](Cc2ccc(-c3ccccc3)nc2)NC(=O)CNC(=O)[C@H](Cc2ccc3ccncc3c2)N(C)C(=O)[C@H](Cc2ccc(O)cc2)NC(=O)[C@H]([C@@H](C)CC)NC1=O

Kd [5]: 0.3 nM
B2: Macrocyclic peptide of Example 2-33 (SEQ ID No. 50) (peptide)
peptide: XSDXFTIXFGXC
modifications: not fully specified; MeDapCOpipzaa-MeHseMe-D-MeDapCOpipzaa-F4COO-TMe-I-Yae-MeNal2-G-3Py6Ph-MeC-NH2; thioether ring from N-terminal acetyl to MeC12

Kd [5]: 1 nM
B3: Macrocyclic peptide of Example 2-37 (SEQ ID No. 54) (peptide)
peptide: XSDXFTIXFGXC
modifications: not fully specified; MeDapCOpipzaa-MeHseMe-D-MeDapCOpipzaa-F4COO-TMe-I-Yae-MeNal27N-G-3Py6Ph-MeC-NH2; thioether ring from N-terminal acetyl to MeC12
